In one data set the test system is CYPSS204A. The data set is described as follows: Conversion reaction of substrates by Escherichia coli expression strain BP215. Type of data set: cell-based, Sphingomonas subterranea NBRC 16086. As for the experimental part: The temperature conditions applied during the PCR were 95° C./5 min, 30 cycles of (98° C./30 sec, 60° C./30 sec, and 68° C./2 min), and 68° C./10 min.
Analysis conditions: Using Chromolith speed rod RP18e (50×4.6 mm) column, 50%→100% CH3CN gradient (0 to 3 min) and 100% CH3CN (3 to 8 min) were used as a mobile phase, and detection was carried out at a flow rate of 2 ml/min using CAD™ (Charged Aerosol Detection) and MS.

The subject of another data set is CYP204A1. The settings on record: for Conversion rate: strain BP172, same reaction as Example 6 (28° C., 5 hours). As for the experimental part: Novosphingobium aromaticivorans (ATCC 700278) was inoculated into an L medium, and it was then cultured at 30° C. for 2 days. Thereafter, genomic DNA was extracted from the cell mass obtained in the same manner as that of Example 1. A fragment comprising a CYPSS204A1 gene and a ferredoxin gene located downstream thereof was amplified from the above-described genomic DNA by using a primer CYP-5F (SEQ ID NO: 9) and a primer CYP-6R (SEQ ID NO: 10) and also using La Taq polymerase (manufactured by Takara Bio INC.). The temperature conditions applied during this operation were 94° C./3 min, 30 cycles of (98° C./20 sec, 63° C./30 sec, and 68° C./2 min), and 72° C./5 min.
Escherichia coli BL21(DE3) was transformed with this plasmid, and the obtained cell strain was named as BP172.
(§1) The Escherichia coli expression strain BP215 was inoculated into 2 ml of an M9 mix medium (Na2HPO4: 0.68%, KH2PO4: 0.3%, NaCl: 0.05%, NH4C;: 0.01%, Casamino acid: 1%, D-Glucose: 0.4%, CaCl2: 0.1 mM, MgCl2: 1 mM, Thiamine: 0.002%, FeSO4: 0.1 mM, Carbenicillin: 0.005%), and it was then subjected to shaking culture at 30° C. for 17 hours, so as to obtain pre-culture solution. 0.25 ml of this pre-culture solution was inoculated into 25 ml of the main culture medium (Na2HPO4: 0.68%, KH2PO4: 0.3%, NaCl: 0.05%, NH4Cl: 0.01%, Casamino acid: 1%, CaCl2: 0.1 mM, MgCl2: 1 mM, Thiamine: 0.002%, FeSO4: 0.1 mM, Carbenicillin: 0.005%, Overnight Express™ solution: 7%, 5-Aminolevlic acid: 0.008%) using Overnight Express™ Autoinduction System (Novagen Cat. No. 71300-4), and it was then subjected to shaking culture at 25° C. for 24 hours. 5 ml of the obtained main culture solution was centrifuged (3500 rpm, 10 minutes) to obtain cell mass, and 1 ml of CV2 buffer (50 mM (pH) potassium phosphate buffer containing glycerol: 2%, carbenicillin: 0.005%, and isopropyl β-D-1-thiogalactopyranoside: 0.1 mM) was added to the obtained cell mass. Thereafter, 0.01 ml of the methanol solution of 1% 4-cholesten-3-one and 0.02 ml of an aqueous solution of 25% methyl-β-cyclodextrin were added to the mixed solution, and the obtained mixture was then shaken at 28° C. for 5 hours for the reaction. After completion of the reaction, 4 ml of methanol was added to the reaction solution, and they were then fully mixed. The obtained mixture was centrifuged, and the upper layer was then analyzed by HPLC.
As substrates, 4-cholesten-3-one, cholesterol, 7-dehydrocholesterol, ergosterol, 13-sitosterol, stigmasterol, campesterol, desmosterol, (20S)-20-hydroxycholest-4-en-3-one, (22R)-22-hydroxycholest-4-en-3-one, (20R,22R)-20,22-dihydroxycholest-4-en-3-one, and (20R,22S)-20,22-dihydroxycholest-4-en-3-one were used. Each substrate was subjected to the same reaction as that of Example 6, separately, and the generated product was then analyzed by HPLC.

Another data set addresses T1, CYP11A (Homo sapiens, UniProt P05108).
T1 construct: A 1.45-kb CYP11A1 gene fragment amplified as a result of the above-described reaction; expressed in transfected cells; host or cells: Escherichia coli BL21(DE3), plasmid pCYP11A-ARX (strain BL21CYP11)
T1 sequence (P05108 40-521): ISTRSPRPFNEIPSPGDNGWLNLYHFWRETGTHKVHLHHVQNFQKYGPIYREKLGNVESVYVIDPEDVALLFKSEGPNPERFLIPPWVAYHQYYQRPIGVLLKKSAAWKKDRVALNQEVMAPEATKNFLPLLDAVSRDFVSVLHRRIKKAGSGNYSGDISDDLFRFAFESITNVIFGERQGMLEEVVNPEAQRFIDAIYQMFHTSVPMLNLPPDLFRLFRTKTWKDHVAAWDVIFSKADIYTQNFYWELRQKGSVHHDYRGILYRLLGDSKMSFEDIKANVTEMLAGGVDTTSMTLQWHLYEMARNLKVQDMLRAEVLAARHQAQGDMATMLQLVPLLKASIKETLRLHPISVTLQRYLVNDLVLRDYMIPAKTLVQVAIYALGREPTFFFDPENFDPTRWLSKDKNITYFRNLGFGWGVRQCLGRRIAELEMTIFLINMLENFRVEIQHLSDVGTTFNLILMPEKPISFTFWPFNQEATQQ
Put plainly: Conversion reaction of substrates by CYP11A-expressing Escherichia coli. Type of data set: cell-based. The settings on record: for Conversion rate: same reaction as Example 6 (28° C., 5 hours). As for the experimental part: as §1
A commercially available human testis cDNA (Origene Technologies, Inc.) was used as a template, and a CYP11A1 gene was amplified by PCR using a primer CYP11A-1F (SEQ ID NO: 19) and a primer CYP11A-2R (SEQ ID NO: 20), and also using KOD plus polymerase (TOYOBO Co., Ltd.). The temperature conditions applied during the PCR were 94° C./3 min, 30 cycles of (94° C./30 sec, 55° C./60 sec, and 72° C./90sec), and 72° C./5 min.
A 1.45-kb CYP11A1 gene fragment amplified as a result of the above-described reaction was purified using QIAquick PCR purification Kit (manufactured by QIAGEN), and it was then digested with Nde I and Spe I. Thereafter, the digest was ligated to Escherichia coli expression vector pT7NS-camAB, using T4 DNA ligase, and Escherichia coli DH5α was then transformed with the obtained expression vector, so as to construct a plasmid pCYP11A-camAB. Subsequently, using T4 DNA ligase, the previously prepared bovine-derived adrenodoxin reductase protein-adrenodoxin gene (adr-adx) fragment was inserted into and ligated to each of the Spe I and Bam HI sites of the above-described plasmid, and Escherichia coli DH5a was then transformed with the obtained plasmid, so as to construct plasmid pCYP11A-ARX. Thereafter, Escherichia coli BL21(DE3) was transformed with the thus constructed plasmid, and the obtained cell strain was named as BL21CYP11. The used adx-adr fragment was amplified by PCR with a plasmid pKARX (Sawada et. al. Eur. J. Biochem. 265, 950-956,1999) as a template, using primer bAdxR-1F (SEQ ID NO: 21) and primer bAdx-2R (SEQ ID NO: 22), and also using KOD plus polymerase (manufactured by TOYOBO Co., Ltd.). The temperature condition applied during the PCR were 94° C./3 min, 25 cycles of (94° C./30 sec, 60° C./30 sec, and 72° C./120sec), and 72° C./5 min.
Each substrate was subjected to the same reaction as that of Example 6, separately, and the reaction solution was then subjected to liquid separation using 1 ml of ethyl acetate. The reaction product and the substrate were extracted, and were then analyzed by HPLC.

The mark [1] stands for this setting: strain BP215, 28° C., 5 hours, to progesterone, pregnenolone or 7-dehydropregnenolone.
[2] abbreviates: strain BP172, same reaction as Example 6.

Read-outs that look alike come from different tables or passages of the source.

On to `CC(C)=CCC[C@@H](C)[C@H]1CC[C@H]2[C@@H]3CC=C4C[C@@H](O)CC[C@]4(C)[C@H]3CC[C@]12C` [desmosterol], for which the “accumulated amount of side-chain cleavage product” value in the data set with CYPSS204A (strain BP215, 28° C., 5 hours) was 71.7 mg/L. Besides, the added substrate remained in the data set on CYPSS204A (strain BP215, 28° C., 5 hours) stood at 21.3%; on CYP11A (same reaction as Example 6) it was 99.6%. Also, the values for the Conversion rate in the data set with CYPSS204A (setting [1]), in the data set with CYP204A1 and on CYP11A were 71.7%, 66.1% and 1.2%, respectively.
Consider `CC(C)CC[C@H](O)[C@](C)(O)[C@H]1CC[C@H]2[C@@H]3CCC4=CC(=O)CC[C@]4(C)[C@H]3CC[C@]12C` [(20R,22S)-20,22-dihydroxycholest-4-en-3-one], for which the added substrate remained with CYPSS204A (strain BP215, 28° C., 5 hours) is given as 0.6%; at CYP11A (same reaction as Example 6), 100%. Besides, the Conversion rate was determined as 69.8% in the data set with CYPSS204A (setting [1]), 41.7% in the data set with CYP204A1 and 0% on CYP11A.
As to `CC(C)[C@H](C)CC[C@@H](C)[C@H]1CC[C@H]2[C@@H]3CC=C4C[C@@H](O)CC[C@]4(C)[C@H]3CC[C@]12C` [campesterol], the “accumulated amount of side-chain cleavage product” value in the data set on CYPSS204A (strain BP215, 28° C., 5 hours) was 27.9 mg/L. The added substrate remained was found to be 25.5% in the data set on CYPSS204A (strain BP215, 28° C., 5 hours) and 99.1% on CYP11A (same reaction as Example 6). Also, the Conversion rate is recorded as 27.9% in the data set on CYPSS204A (setting [1]), 31.3% with CYP204A1, 1.0% at CYP11A and 1% at CYP11A (listed as Cam).
Consider `CC(C)CCC[C@](C)(O)[C@H]1CC[C@H]2[C@@H]3CCC4=CC(=O)CC[C@]4(C)[C@H]3CC[C@@]21C` [(20S)-20-hydroxycholest-4-en-3-one], for which the added substrate remained in the data set on CYPSS204A (strain BP215, 28° C., 5 hours) came to 4.8%; on CYP11A (same reaction as Example 6) it was 100%. Further, the Conversion rate in the data set on CYPSS204A (setting [1]) worked out at 41.0%; in the data set on CYPSS204A (strain BP215, 28° C., 5 hours, to progesterone, pregnenolone or 7-dehydropregnenolone, listed as 20-OH), 41%; in the data set with CYP204A1 it was 63.9%; on CYP11A, 0%.
Take `CC(C)[C@@H](C)/C=C/[C@@H](C)[C@H]1CC[C@H]2C3=CC=C4C[C@@H](O)CC[C@]4(C)[C@H]3CC[C@]12C` [ergosterol]: the Conversion rate is 2.8% in the data set on CYPSS204A and 0% at CYP11A. Moreover, in the data set with CYPSS204A (strain BP215, 28° C., 5 hours), the “accumulated amount of side-chain cleavage product” value is 2.8 mg/L. On CYP11A (same reaction as Example 6), this molecule yielded an added substrate remained of 100%.
In the case of `CC(C)CCC[C@@H](C)[C@H]1CC[C@H]2C3=CC=C4C[C@@H](O)CC[C@]4(C)[C@H]3CC[C@]12C` [7-dehydrocholesterol], the “accumulated amount of side-chain cleavage product” value with CYPSS204A (strain BP215, 28° C., 5 hours) came out at 34.3 mg/L. The added substrate remained with CYPSS204A (strain BP215, 28° C., 5 hours) stood at 54%; on CYP11A (same reaction as Example 6), 99.2%. The Conversion rate came out at 34.3% in the data set with CYPSS204A (setting [1]), 28.5% in the data set with CYP204A1 and 0.7% at CYP11A.
As for `CC(C)=CCC[C@@H](C)[C@H]1CC[C@@]2(C)C3=C(CC[C@]12C)[C@@]1(C)CC[C@H](O)C(C)(C)[C@@H]1CC3` [Lano, lanosterol], the Conversion rate in the data set with CYPSS204A (setting [1]), in the data set on CYP204A1 and on CYP11A was 0% in each case.
Consider `CC(C)CC[C@@H](O)[C@@H](C)[C@H]1CC[C@H]2[C@@H]3CC=C4C[C@@H](O)CC[C@]4(C)[C@H]3CC[C@]12C` [(22R)-22-hydroxy-cholesterol], for which the “accumulated amount of pregnenolone” value in the data set with CYPSS204A (strain BP215, 28° C., 5 hours) came to 80.0 mg/L; with CYP204A1 (setting [2]), 69.5 mg/L; on CYP11A (same reaction as Example 6), 28.0 mg/L. In addition, the added substrate remained in the data set on CYPSS204A (strain BP215, 28° C., 5 hours) came out at 14.8%; in the data set on CYP204A1 (setting [2]), 42.8%; at CYP11A (same reaction as Example 6) it was 78.6%. Also, the Conversion rate turned out to be 80% with CYPSS204A (setting [1]), 69.5% in the data set with CYP204A1 and 28.0% at CYP11A.
With `CC(C)CCC[C@@H](C)[C@H]1CC[C@H]2[C@@H]3CC=C4C[C@@H](O)CC[C@]4(C)[C@H]3CC[C@]12C` [cholesterol], the “accumulated amount of side-chain cleavage product” value with CYPSS204A (strain BP215, 28° C., 5 hours) came to 68.2 mg/L. Also, the added substrate remained in the data set with CYPSS204A (strain BP215, 28° C., 5 hours) is given as 3.7%; at CYP11A (same reaction as Example 6) it was 99%. Also, the Conversion rate with CYPSS204A (setting [1]) is given as 68.2%; with CYP204A1, 71.2%; on CYP11A, 2.6%.
